The test has as its system Subjects with a variety of atopic conditions. It is filed as in vivo, human. Details: key: a score of 1 was given if symptoms worsened; a score of 2 was given if there was no change in symptoms; a score of 3 was given if there was some improvement in symptoms; a score of 4 was given if there were marked improvement in symptoms. To be noted: Subject D; eosinophilic esophagitis and GERD; Vitamin D3 4000 IU for 9 months without a probiotic compound.

Regarding `C=C1CC[C@H](O)C/C1=C/C=C1\CCC[C@]2(C)[C@@H]([C@H](C)CCCC(C)C)CC[C@@H]12` [Vitamin D3], the “score on 4 point scale” value is given as 2.

These data come from US20240139213A1 (priority 2017, published 2024).
